Read-outs that look alike come from different tables or passages of the source.
Legend:
[1] = system: HCT116 WT cells; assay: HCT116 WT cell line proliferation (CellTiter-Glo cell viability, 6 days); type: cell-based; conditions: HCT116 WT (parent) cells, 6 days of treatment, CellTiter-Glo cell viability, read-out: HCT-116 WT IC50
In short: (§1)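 Isogenic HCT116 pair (both MTAP alleles knocked out vs parent) in RPMI 1640 + 10% FBS, seeded overnight at 37° C, 5% CO2, then exposed 6 days to 8- or 9-point 1:3 dilutions from 1 or 10 μM. CellTiter-Glo luminescence; IC50 from sigmoidal fit, Hill slope fixed −1, top 100%, or 4-parameter logistic.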

[2] = system: HCT116 MTAP null cells; assay: HCT116 MTAP null cell line proliferation (CellTiter-Glo cell viability, 6 days); type: cell-based; conditions: HCT116 MTAP null cells, 6 days of treatment, CellTiter-Glo cell viability, read-out: HCT-116 MTAP null IC50
In short: as §1

| IC50 ([1]; Homo sapiens, HCT-116, 144 h) [nM] | IC50 ([2]; HCT116-MTAP null, 144 h) [nM] | IC50 [1] [nM] | IC50 [2] [nM] | SMILES |
| --- | --- | --- | --- | --- |
| 17600 | 677 | – | – | C[C@H]1OCc2c1c(N)nc1ccc(C(=O)N3C[C@H](c4ccccc4)[C@H]4CCC[C@@H]43)cc21 [Example 401, ((3R)-4-amino-3-methyl-1,3-dihydrofuro[3,4-c]quinolin-8-yl)((3S,3aR,6aS)-3-phenylhexahydrocyclopenta[b]pyrrol-1(2H)-yl)methanone] |
| 13300 | 833 | – | – | CC1CN(C(=O)c2ccc3nc(N)c4c(c3c2)CO[C@@H]4C)CC1c1ccc(Br)cc1 (stereo partly drawn) [Example 402, ((3R)-4-amino-3-methyl-1,3-dihydrofuro[3,4-c]quinolin-8-yl)(3-(4-bromophenyl)-4-methylpyrrolidin-1-yl)methanone] |
| 673 | 765 | – | – | Nc1nc2ccc(C(=O)N3CCOC[C@@H]3c3ccc(C(F)(F)F)cc3)cc2n2ccnc12 [Example 403, (4-aminoimidazo[1,2-a]quinoxalin-8-yl)((3S)-3-(4-(trifluoromethyl)phenyl)-4-morpholinyl)methanone] |
| 9760 | 872 | – | – | Nc1nc2cnc(C(=O)N3CCOC[C@@H]3c3ccc(C(F)(F)F)cc3)cc2c2c1CCO2 [Example 404, (4-amino-2,3-dihydrofuro[3,2-c][1,7]naphthyridin-8-yl)((3S)-3-(4-(trifluoromethyl)phenyl)-4-morpholinyl)methanone] |
| 2700 | 181 | – | – | Cc1n[nH]c2c1c(N)nc1ccc(C(=O)N3CCOC[C@@H]3c3ccc(C(F)(F)F)cc3)cc12 [Example 405, (4-amino-3-methyl-1H-pyrazolo[4,3-d]quinolin-8-yl)((3S)-3-(4-(trifluoromethyl)phenyl)-4-morpholinyl)methanone] |
| 5640 | 155 | – | – | Cc1n[nH]c2c1c(N)nc1cnc(C(=O)N3CCOC[C@@H]3c3ccc(C(F)(F)F)cc3)cc12 [Example 406, (4-amino-3-methyl-1H-pyrazolo[4,3-c][1,7]naphthyridin-8-yl)((3S)-3-(4-(trifluoromethyl)phenyl)-4-morpholinyl)methanone] |
| 4210 | 416 | – | – | Nc1nc2cc(F)c(C(=O)N3CCOC[C@@H]3c3ccc(C(F)(F)F)cc3)cc2c2c1CCO2 [Example 407, (4-amino-7-fluoro-2,3-dihydrofuro[3,2-c]quinolin-8-yl)((3S)-3-(4-(trifluoromethyl)phenyl)-4-morpholinyl)methanone] |
| 6360 | 118 | – | – | Cn1ncc2c(N)nc3ccc(C(=O)N4CC(c5ccc(C(F)(F)F)cc5)C4)cc3c21 [Example 408, (4-amino-1-methyl-1H-pyrazolo[4,3-c]quinolin-8-yl)(3-(4-(trifluoromethyl)phenyl)-1-azetidinyl)methanone] |
| 1670 | 29 | – | – | Cn1ncc2c(N)nc3ccc(C(=O)N4CCOC[C@@H]4c4ccc(C(F)(F)C(F)(F)F)cc4)cc3c21 [Example 409, (4-amino-1-methyl-1H-pyrazolo[4,3-c]quinolin-8-yl)((3S)-3-(4-(pentafluoroethyl)phenyl)-4-morpholinyl)methanone] |
| 444 | 15 | – | – | Cn1ncc2c(N)nc3cnc(C(=O)N4CCOC[C@@H]4c4ccc(C(F)(F)C(F)(F)F)cc4)cc3c21 [Example 410, (4-amino-1-methyl-1H-pyrazolo[4,3-c][1,7]naphthyridin-8-yl)((3S)-3-(4-(pentafluoroethyl)phenyl)-4-morpholinyl)methanone] |
| 352 | 8 | – | – | Cn1ncc2c(N)nc3cc(F)c(C(=O)N4CCOC[C@@H]4c4ccc(C(F)(F)C(F)(F)F)cc4)cc3c21 [Example 411, (4-amino-7-fluoro-1-methyl-1H-pyrazolo[4,3-c]quinolin-8-yl)((3S)-3-(4-(pentafluoroethyl)phenyl)-4-morpholinyl)methanone] |
| 413 | 22 | – | – | Cc1cc2nc(N)c3cnn(C)c3c2cc1C(=O)N1CCOC[C@@H]1c1ccc(C(F)(F)F)cc1 [Example 413, (4-amino-1,7-dimethyl-1H-pyrazolo[4,3-c]quinolin-8-yl)((3S)-3-(4-(trifluoromethyl)phenyl)-4-morpholinyl)methanone] |
| 2800 | 56 | – | – | Cc1cc2nc(N)c3c(cnn3C)c2cc1C(=O)N1CCOC[C@@H]1c1ccc(C(F)(F)F)cc1 [Example 414, (4-amino-3,7-dimethyl-3H-pyrazolo[3,4-c]quinolin-8-yl)((3S)-3-(4-(trifluoromethyl)phenyl)-4-morpholinyl)methanone] |
| 3340 | 73 | – | – | Cc1nc2nc(N)c3cnn(C)c3c2cc1C(=O)N1CCOC[C@@H]1c1ccc(C(F)(F)F)cc1 [Example 415, (4-amino-1,7-dimethyl-1H-pyrazolo[4,3-c][1,8]naphthyridin-8-yl)((3S)-3-(4-(trifluoromethyl)phenyl)-4-morpholinyl)methanone] |
| 867 | 33 | – | – | C[C@H]1OCc2c1c(N)nc1ccc(C(=O)N3CCOC[C@@H]3c3ccc(S(F)(F)(F)(F)F)cc3)cc21 [Example 416, ((3R)-4-amino-3-methyl-1,3-dihydrofuro[3,4-c]quinolin-8-yl)((3S)-3-(4-(pentafluoro-lambda~6~-sulfanyl)phenyl)-4-morpholinyl)methanone] |
| 523 | 17 | – | – | C[C@H]1OCc2c1c(N)nc1cnc(C(=O)N3CCOC[C@@H]3c3ccc(S(F)(F)(F)(F)F)cc3)cc21 [Example 417, ((3R)-4-amino-3-methyl-1,3-dihydrofuro[3,4-c][1,7]naphthyridin-8-yl)((3S)-3-(4-(pentafluoro-lambda~6~-sulfanyl)phenyl)-4-morpholinyl)methanone] |
| 243 | 10 | – | – | Nc1nc2cc(Cl)c(C(=O)N3CCOC[C@@H]3c3ccc(S(F)(F)(F)(F)F)cc3)cc2c2c1COC2 [Example 418, (4-amino-7-chloro-1,3-dihydrofuro[3,4-c]quinolin-8-yl)((3S)-3-(4-(pentafluoro-lambda~6~-sulfanyl)phenyl)-4-morpholinyl)methanone] |
| 548 | 23 | – | – | Cn1ncc2c3cc(C(=O)N4CCOC[C@@H]4c4ccc(S(F)(F)(F)(F)F)cc4)c(Cl)cc3nc(N)c21 [Example 419, (4-amino-7-chloro-3-methyl-3H-pyrazolo[3,4-c]quinolin-8-yl)((3S)-3-(4-(pentafluoro-lambda~6~-sulfanyl)phenyl)-4-morpholinyl)methanone] |
| 338 | 12 | – | – | Cn1ncc2c(N)nc3cc(F)c(C(=O)N4CCOC[C@@H]4c4ccc(C(F)(F)F)cc4)cc3c21 [Example 420, (4-amino-7-fluoro-1-methyl-1H-pyrazolo[4,3-c]quinolin-8-yl)((3S)-3-(4-(trifluoromethyl)phenyl)-4-morpholinyl)methanone] |
| > 50000 | 914 | – | – | C[C@H]1OCc2c1c(N)nc1ccc(C(=O)N3CC(c4ccc(C(F)(F)F)cn4)C3)cc21 [Example 421, ((3R)-4-amino-3-methyl-1,3-dihydrofuro[3,4-c]quinolin-8-yl)(3-(5-(trifluoromethyl)-2-pyridinyl)-1-azetidinyl)methanone] |
| – | – | 12500 | 633 | Nc1nc2cc(F)c(C(=O)N3CC(c4ccc(C(F)(F)F)cc4)C3)cc2c2c1COC2 [Example 422] |
| 33300 | 653 | – | – | Nc1nc2cc(F)c(C(=O)N3CC(c4ccc(C(F)(F)F)cn4)C3)cc2c2c1COC2 [Example 423, (4-amino-7-fluoro-1,3-dihydrofuro[3,4-c]quinolin-8-yl)(3-(5-(trifluoromethyl)-2-pyridinyl)-1-azetidinyl)methanone] |
| 4400 | 147 | – | – | Cn1ncc2c(N)nc3ccc(C(=O)N4CC[C@H](c5ccc(C(F)(F)F)cc5)C4)cc3c21 [Example 425, (4-amino-1-methyl-1H-pyrazolo[4,3-c]quinolin-8-yl)((3R)-3-(4-(trifluoromethyl)phenyl)-1-pyrrolidinyl)methanone] |
| 4760 | 97 | – | – | Cn1ncc2c(N)nc3cnc(C(=O)N4CC[C@H](c5ccc(C(F)(F)F)cc5)C4)cc3c21 [Example 426, (4-amino-1-methyl-1H-pyrazolo[4,3-c][1,7]naphthyridin-8-yl)((3R)-3-(4-(trifluoromethyl)phenyl)-1-pyrrolidinyl)methanone] |
| 2540 | 40 | – | – | Cn1ncc2c(N)nc3cc(F)c(C(=O)N4CC(c5ccc(C(F)(F)F)cc5)C4)cc3c21 [Example 427, (4-amino-7-fluoro-1-methyl-1H-pyrazolo[4,3-c]quinolin-8-yl)(3-(4-(trifluoromethyl)phenyl)-1-azetidinyl)methanone] |
| 8400 | 74 | – | – | Cn1ncc2c(N)nc3cc(F)c(C(=O)N4CC(c5ccc(C(F)(F)F)cn5)C4)cc3c21 [Example 428, (4-amino-7-fluoro-1-methyl-1H-pyrazolo[4,3-c]quinolin-8-yl)(3-(5-(trifluoromethyl)-2-pyridinyl)-1-azetidinyl)methanone] |
| 20600 | 382 | – | – | Nc1nc2cc(F)c(C(=O)N3CC(O)(c4ccc(C(F)(F)F)cc4)C3)cc2c2c1COC2 [Example 429, (4-amino-7-fluoro-1,3-dihydrofuro[3,4-c]quinolin-8-yl)(3-hydroxy-3-(4-(trifluoromethyl)phenyl)-1-azetidinyl)methanone] |
| 12600 | 445 | – | – | Nc1nc2cc(Cl)c(C(=O)N3CC(c4ccc(C(F)(F)F)cc4)C3)cc2c2c1COC2 [Example 430, (4-amino-7-chloro-1,3-dihydrofuro[3,4-c]quinolin-8-yl)(3-(4-(trifluoromethyl)phenyl)-1-azetidinyl)methanone] |

Source: patent US11845760B2, “PRMT5 inhibitors” (AMGEN INC., priority 2020, dated 2023)
